Assay results from patent US20250213581A1, “COMBINATION THERAPY OF A PI3K INHIBITOR AND KRAS INHIBITOR AND METHODS OF USE THEREOF” (Totus Medicines Inc., priority 2022, published 2025).

What was measured:
[1] = target: T1, PI3K (Homo sapiens, UniProt P42336); assay: NanoBRET screening (binding assay) in transfected HEK293 cells; conditions: overnight incubation, washout
T1 construct: expressed in transfected cells; host or cells: HEK293 (Gibco 293-H), transient transfection with FuGENE HD
Procedure: Human embryonic kidney 293-H (HEK 293, Gibco 293-H, #11631017) cell lines were maintained in Dulbecco's Modified Eagle Medium, high glucose, pyruvate (DMEM, Gibco, #11995065) supplemented with 10% fetal bovine serum (FBS, Gibco, #10082147) and 1× penicillin-streptomycin (100× solution, Gibco, #15140148) at 37° C. and 5% CO2 in a water-saturated incubator. […] Opti-MEM media supplemented with 10% fetal bovine serum (Opti-MEM I reduced serum media, no phenol red, Gibco, #11058021) was used for culturing cells overnight for NanoBRET readout experiments.
HEK293 cells were cultivated appropriately prior to assay. The medium from cell flask was removed via aspiration, washed 1× with PBS followed by aspiration, trypsinized, and cells were allowed to dissociate from the flask. Trypsin was neutralized using growth medium and cells were pelleted via centrifugation at 200×g for 5 minutes. The medium was aspirated and the cells were resuspended into a single cell suspension using Opti-MEM I supplemented with 10% FBS. The cell density was adjusted to 2×10^5/mL in Opti-MEM I supplemented with 10% FBS in a sterile, conical tube. […]
A 10 μg/mL solution of DNA was prepared in Opti-MEM without serum. […] The plate on plate reader is read every hour for the next 6 hours.

[2] = test system: SW837 (Rectum) cell lines; assay: Cell proliferation assay and synergy analysis, Compound I with Adagrasib; conditions: Homo sapiens, SW837, 72 h, read-out: Ave of Inhibition (%)
From the text: (§1) The cell lines tested included: UM-UC-3 (bladder), KYSE-410 (HN/Esophagus), SW1463 (rectum), Calu-1 (Lung), NCI-H358 (Lung), SW837 (Rectum), SW756 (Cervix), NCI-H2122 (Lung), NCI-H1373 (Lung), NCI-H1792 (Lung), NCI-H23 (Lung), MIA PaCa-2 (Pancreas), and HCC44 (Lung).
(§2) Cells were recovered and maintained in appropriate culture media. The cells were harvested respectively during the logarithmic growth period. The cells were then resuspended and counted using a Vi cell counter (The cell viability was measured by trypan blue exclusion assay). The cells were then diluted and 80 μL of the cell suspensions were added to 96-well plates according to plate map with final cell density. Two duplicate plates were set up. One is for day 0 reading (T0) and the other was cultured in the incubator for reading at the end point. The incubated plates were incubated overnight in humidified incubator at 37° C. with 5% CO2.
(§3) At day 0, 20 μL of culture medium was added to each well for T0 reading. 10 μL of culture medium was added to each well for day 0 (T0) reading. Then, 50 μl of CellTiter-Glo® Reagent was added to each well. The contents were then mixed for 2 minutes on an orbital shaker to facilitate cell lysis. The plates were then allowed to incubate at room temperature for 10 minutes to stabilize luminescent signal. Luminescence was then recorded using an EnVision Multi Label Reader. […] The screening plates were then placed back into the incubator for the appropriate treatment time (3 days).
(§4) For the endpoint CTG reading, 50 μL of CellTiter-Glo® Reagent was added to each well. The contents were then mixed for 2 minutes on an orbital shaker to facilitate cell lysis. The plate was allowed to incubate at room temperature for 10 minutes to stabilize luminescent signal. Luminescence was then recorded using an EnVision Multi Label Reader. The surviving rate (%)=(LumTest article−LumMedium control)/(LumNone treated−LumMedium control)×100%.
(§5) A score higher than 5 indicates synergy, and a score less than −5 indicates antagonism.

[3] = test system: SW1463 (rectum) cell lines; assay: as above; conditions: Homo sapiens, SW1463, 72 h, read-out: Ave Inhibition (%)
From the text: as §1, §2, §3, §4, §5

[4] = test system: NCI-H358 (Lung) cell lines; assay: as above; conditions: Homo sapiens, NCI-H358, 72 h, read-out: Ave of Inhibition (%)
From the text: as §1, §2, §3, §4, §5

[5] = test system: SW756 (Cervix) cell lines; assay: as above; conditions: Homo sapiens, SW756, 72 h, read-out: Ave Inhibition (%)
From the text: as §1, §2, §3, §4, §5

[6] = test system: UM-UC-3 (bladder) cell lines; assay: as above; conditions: Homo sapiens, UMUC3, 72 h, read-out: Ave Inhibition rate (%)
From the text: as §1, §2, §3, §4, §5

[7] = test system: Calu-1 (Lung) cell lines; assay: as above; conditions: Homo sapiens, Calu-1, 72 h, read-out: Ave of Inhibition (%)
From the text: as §1, §2, §3, §4, §5

T1 sequence (P42336 whole entry): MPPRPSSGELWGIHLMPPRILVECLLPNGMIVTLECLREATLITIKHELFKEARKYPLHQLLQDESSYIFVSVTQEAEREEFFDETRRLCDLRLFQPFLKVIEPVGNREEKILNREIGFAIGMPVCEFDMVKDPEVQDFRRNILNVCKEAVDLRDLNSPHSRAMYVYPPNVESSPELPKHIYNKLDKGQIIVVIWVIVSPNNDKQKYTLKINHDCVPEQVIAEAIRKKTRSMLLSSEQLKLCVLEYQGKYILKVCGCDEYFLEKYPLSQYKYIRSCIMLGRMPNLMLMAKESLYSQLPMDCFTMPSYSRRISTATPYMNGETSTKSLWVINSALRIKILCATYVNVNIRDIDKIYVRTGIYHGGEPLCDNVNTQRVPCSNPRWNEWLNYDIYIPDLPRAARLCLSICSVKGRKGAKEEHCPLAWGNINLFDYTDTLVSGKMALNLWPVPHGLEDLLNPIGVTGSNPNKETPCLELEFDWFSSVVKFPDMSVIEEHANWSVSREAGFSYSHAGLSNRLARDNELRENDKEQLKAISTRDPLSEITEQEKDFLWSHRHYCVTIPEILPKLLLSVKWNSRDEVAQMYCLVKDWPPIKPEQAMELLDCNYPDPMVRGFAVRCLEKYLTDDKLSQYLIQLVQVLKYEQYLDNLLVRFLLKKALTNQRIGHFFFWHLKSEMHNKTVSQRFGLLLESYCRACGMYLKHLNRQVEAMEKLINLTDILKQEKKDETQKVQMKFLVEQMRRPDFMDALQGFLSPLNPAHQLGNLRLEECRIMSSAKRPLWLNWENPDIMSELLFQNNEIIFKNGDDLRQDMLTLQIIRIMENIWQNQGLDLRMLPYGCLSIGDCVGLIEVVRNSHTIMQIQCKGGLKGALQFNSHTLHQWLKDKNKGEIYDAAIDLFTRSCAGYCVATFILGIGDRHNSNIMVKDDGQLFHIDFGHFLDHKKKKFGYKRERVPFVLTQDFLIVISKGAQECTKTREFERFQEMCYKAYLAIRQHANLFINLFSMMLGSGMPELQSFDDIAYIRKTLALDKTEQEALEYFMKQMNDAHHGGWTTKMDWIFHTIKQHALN
T1 sequence (P27986 whole entry partner): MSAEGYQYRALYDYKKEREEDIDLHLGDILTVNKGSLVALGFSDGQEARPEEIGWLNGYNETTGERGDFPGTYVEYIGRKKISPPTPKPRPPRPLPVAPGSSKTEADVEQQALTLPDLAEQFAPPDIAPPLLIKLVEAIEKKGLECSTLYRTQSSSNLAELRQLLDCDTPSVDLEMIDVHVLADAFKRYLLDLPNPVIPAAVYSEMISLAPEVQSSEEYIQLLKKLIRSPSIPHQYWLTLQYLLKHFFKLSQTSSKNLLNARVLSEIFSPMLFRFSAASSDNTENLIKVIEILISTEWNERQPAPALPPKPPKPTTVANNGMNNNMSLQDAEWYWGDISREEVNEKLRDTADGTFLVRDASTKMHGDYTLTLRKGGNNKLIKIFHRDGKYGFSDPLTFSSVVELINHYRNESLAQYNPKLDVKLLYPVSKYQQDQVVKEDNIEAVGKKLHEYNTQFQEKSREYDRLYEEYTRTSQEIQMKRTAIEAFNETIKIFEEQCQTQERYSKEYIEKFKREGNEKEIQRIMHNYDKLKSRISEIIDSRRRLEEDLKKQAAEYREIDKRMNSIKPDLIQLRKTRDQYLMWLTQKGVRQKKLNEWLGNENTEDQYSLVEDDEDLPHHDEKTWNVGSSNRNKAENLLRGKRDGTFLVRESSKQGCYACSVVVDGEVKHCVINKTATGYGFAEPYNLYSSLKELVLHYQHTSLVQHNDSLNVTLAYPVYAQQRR

Question: `C=CC(=O)NCC(=O)N1CCN(Cc2cc3c(N4CCOCC4)nc(-c4cnc(NC(=O)OC)cc4C(F)(F)F)nn3c2)CC1` [Compound I, methyl (5-(6-((4-(acryloylglycyl)piperazin-1-yl)methyl)-4-morpholinopyrrolo[2,1-f][1,2,4]triazin-2-yl)-4-(trifluoromethyl)pyridin-2-yl)carbamate] was tested. Which “inhibition of the PI3K target” value [1] did it give?
Answer: greater than 80%

Question: What about the inhibition at 0.0046 µM [2] of the same compound?
Answer: -3.3%

Question: What about the inhibition at 0.0137 µM [2] of the same compound?
Answer: -0.64%

Question: And the inhibition at 0.0412 µM [2]?
Answer: 8.04%

Question: And the inhibition at 0.1235 µM [2]?
Answer: 9.71%

Question: And the inhibition at 0.3704 µM [2]?
Answer: 15.9%

Question: What about the inhibition at 1.1111 µM [2] of the same compound?
Answer: 19%

Question: What about the inhibition at 3.3333 µM [2] of the same compound?
Answer: 21.8%

Question: And the inhibition at 10 µM [2]?
Answer: 27.5%

Question: What about the inhibition at 0.0046 µM [3] of the same compound?
Answer: 4.57%

Question: And the inhibition at 0.0137 µM [3]?
Answer: 2.64%

Question: And the inhibition at 0.0412 µM [3]?
Answer: 6.01%

Question: And the inhibition at 0.1235 µM [3]?
Answer: 15.7%

Question: What about the inhibition at 0.3704 µM [3] of the same compound?
Answer: 21.8%

Question: What about the inhibition at 1.1111 µM [3] of the same compound?
Answer: 29.5%

Question: And the inhibition at 3.3333 µM [3]?
Answer: 40.4%

Question: And the inhibition at 10 µM [3]?
Answer: 48.4%

Question: What about the inhibition at 0.0046 µM [4] of the same compound?
Answer: 0.76%

Question: What about the inhibition at 0.0137 µM [4] of the same compound?
Answer: 4.1%

Question: And the inhibition at 0.0412 µM [4]?
Answer: 10.8%

Question: And the inhibition at 0.1235 µM [4]?
Answer: 17.1%

Question: And the inhibition at 0.3704 µM [4]?
Answer: 25%

Question: What about the inhibition at 1.1111 µM [4] of the same compound?
Answer: 38.9%

Question: And the inhibition at 3.3333 µM [4]?
Answer: 50.4%

Question: What about the inhibition at 10 µM [4] of the same compound?
Answer: 61%

Question: What about the inhibition at 0.0046 µM [5] of the same compound?
Answer: -1.03%

Question: What about the inhibition at 0.0137 µM [5] of the same compound?
Answer: -0.86%

Question: And the inhibition at 0.0412 µM [5]?
Answer: 1.55%

Question: And the inhibition at 0.1235 µM [5]?
Answer: 4.83%

Question: And the inhibition at 0.3704 µM [5]?
Answer: 8.26%

Question: And the inhibition at 1.1111 µM [5]?
Answer: 14.3%

Question: And the inhibition at 3.3333 µM [5]?
Answer: 21.6%

Question: And the inhibition at 10 µM [5]?
Answer: 34.6%

Question: And the inhibition at 0.0046 µM [6]?
Answer: -5.05%

Question: What about the inhibition at 0.0137 µM [6] of the same compound?
Answer: -5.07%

Question: What about the inhibition at 0.0412 µM [6] of the same compound?
Answer: -7.94%

Question: What about the inhibition at 0.1235 µM [6] of the same compound?
Answer: -4.04%

Question: And the inhibition at 0.3704 µM [6]?
Answer: 0.18%

Question: And the inhibition at 1.1111 µM [6]?
Answer: 9.37%

Question: And the inhibition at 3.3333 µM [6]?
Answer: 27.4%

Question: And the inhibition at 10 µM [6]?
Answer: 44.8%

Question: What about the inhibition at 0.0046 µM [7] of the same compound?
Answer: -8.39%

Question: And the inhibition at 0.0137 µM [7]?
Answer: -5.3%

Question: What about the inhibition at 0.0412 µM [7] of the same compound?
Answer: -3.3%

Question: And the inhibition at 0.1235 µM [7]?
Answer: -0.27%

Question: And the inhibition at 0.3704 µM [7]?
Answer: 3.9%

Question: And the inhibition at 1.1111 µM [7]?
Answer: 31%

Question: And the inhibition at 3.3333 µM [7]?
Answer: 11.6%

Question: What about the inhibition at 10 µM [7] of the same compound?
Answer: 22.6%
